The NIST ThermoML archive (doi:10.1016/j.jct.2012.03.003)

Assay: xn = mol fraction of the nth substance listed
Conditions: Liquid, Vibrating tube method

COc1cc2c(cc1O)CC1c3c(cc(O)c(OC)c3-2)CCN1C (stereo not given) [boldine] + CCCO
Conditions | mass density [kg/m3]
343 K, 1000 kPa, x1 = 0.0018 | 765.31
343 K, 2000 kPa, x1 = 0.0018 | 766.28
343 K, 3000 kPa, x1 = 0.0018 | 767.25
343 K, 4000 kPa, x1 = 0.0018 | 768.23
343 K, 5000 kPa, x1 = 0.0018 | 769.21
343 K, 6000 kPa, x1 = 0.0018 | 770.18
343 K, 7000 kPa, x1 = 0.0018 | 771.15
343 K, 8000 kPa, x1 = 0.0018 | 772.11
343 K, 9000 kPa, x1 = 0.0018 | 773.07
343 K, 10000 kPa, x1 = 0.0018 | 774.02
343 K, 11000 kPa, x1 = 0.0018 | 774.96
343 K, 12000 kPa, x1 = 0.0018 | 775.89
343 K, 13000 kPa, x1 = 0.0018 | 776.81
343 K, 14000 kPa, x1 = 0.0018 | 777.73
343 K, 15000 kPa, x1 = 0.0018 | 778.63
343 K, 16000 kPa, x1 = 0.0018 | 779.51
343 K, 17000 kPa, x1 = 0.0018 | 780.4
343 K, 18000 kPa, x1 = 0.0018 | 781.25
343 K, 19000 kPa, x1 = 0.0018 | 782.1
343 K, 20000 kPa, x1 = 0.0018 | 782.93
343.01 K, 1000 kPa, x1 = 0.0077 | 775.45
343.01 K, 1000 kPa, x1 = 0.0142 | 786.8
343.01 K, 2000 kPa, x1 = 0.0077 | 776.42
343.01 K, 2000 kPa, x1 = 0.0142 | 787.75
343.01 K, 3000 kPa, x1 = 0.0077 | 777.38
343.01 K, 3000 kPa, x1 = 0.0142 | 788.7
343.01 K, 4000 kPa, x1 = 0.0077 | 778.34
343.01 K, 4000 kPa, x1 = 0.0142 | 789.64
343.01 K, 5000 kPa, x1 = 0.0077 | 779.31
343.01 K, 5000 kPa, x1 = 0.0142 | 790.58
343.01 K, 6000 kPa, x1 = 0.0077 | 780.26
343.01 K, 6000 kPa, x1 = 0.0142 | 791.54
343.01 K, 7000 kPa, x1 = 0.0077 | 781.23
343.01 K, 7000 kPa, x1 = 0.0142 | 792.46
343.01 K, 8000 kPa, x1 = 0.0077 | 782.18
343.01 K, 8000 kPa, x1 = 0.0142 | 793.4
343.01 K, 9000 kPa, x1 = 0.0077 | 783.12
343.01 K, 9000 kPa, x1 = 0.0142 | 794.32
343.01 K, 10000 kPa, x1 = 0.0077 | 784.05
343.01 K, 10000 kPa, x1 = 0.0142 | 795.24
343.01 K, 11000 kPa, x1 = 0.0077 | 784.98
343.01 K, 11000 kPa, x1 = 0.0142 | 796.17
343.01 K, 12000 kPa, x1 = 0.0077 | 785.91
343.01 K, 12000 kPa, x1 = 0.0142 | 797.07
343.01 K, 13000 kPa, x1 = 0.0077 | 786.82
343.01 K, 13000 kPa, x1 = 0.0142 | 797.96
343.01 K, 14000 kPa, x1 = 0.0077 | 787.72
343.01 K, 14000 kPa, x1 = 0.0142 | 798.86
343.01 K, 15000 kPa, x1 = 0.0077 | 788.61
343.01 K, 15000 kPa, x1 = 0.0142 | 799.72
343.01 K, 16000 kPa, x1 = 0.0077 | 789.48
343.01 K, 16000 kPa, x1 = 0.0142 | 800.59
343.01 K, 17000 kPa, x1 = 0.0077 | 790.35
343.01 K, 17000 kPa, x1 = 0.0142 | 801.44
343.01 K, 18000 kPa, x1 = 0.0077 | 791.2
343.01 K, 18000 kPa, x1 = 0.0142 | 802.3
343.01 K, 19000 kPa, x1 = 0.0077 | 792.04
343.01 K, 19000 kPa, x1 = 0.0142 | 803.11
343.01 K, 20000 kPa, x1 = 0.0077 | 792.86
343.01 K, 20000 kPa, x1 = 0.0142 | 803.92
343.02 K, 1000 kPa, x1 = 0.0112 | 782.08
343.02 K, 2000 kPa, x1 = 0.0112 | 783.03
343.02 K, 3000 kPa, x1 = 0.0112 | 783.98
343.02 K, 4000 kPa, x1 = 0.0112 | 784.93
343.02 K, 5000 kPa, x1 = 0.0112 | 785.88
343.02 K, 6000 kPa, x1 = 0.0112 | 786.83
343.02 K, 7000 kPa, x1 = 0.0112 | 787.77
343.02 K, 8000 kPa, x1 = 0.0112 | 788.71
343.02 K, 9000 kPa, x1 = 0.0112 | 789.64
343.02 K, 10000 kPa, x1 = 0.0112 | 790.57
343.02 K, 11000 kPa, x1 = 0.0112 | 791.49
343.02 K, 12000 kPa, x1 = 0.0112 | 792.4
343.02 K, 13000 kPa, x1 = 0.0112 | 793.29
343.02 K, 14000 kPa, x1 = 0.0112 | 794.19
343.02 K, 15000 kPa, x1 = 0.0112 | 795.06
